Data on one molecule can be found in patent publication US12275731B2, “Azaindole inhibitors of wild-type and mutant forms of LRRK2” (DANA-FARBER CANCER INSTITUTE, INC., priority 2018, dated 2025).

In one experiment the target is T1, LRRK2 WT enzyme (Homo sapiens, UniProt Q5S007).
T1 construct: purchased Thermo Fisher Scientific PR8604B
Nature of the experiment: LRRK2 wild type kinase inhibition assay (ADP-Glo). The class given is biochemical. The conditions noted are these: Table 2, class symbols; read-out: Enzyme activity against LRRK2 WT (IC50). The method, then:
(§1) IC50 experiments were performed for inventive compounds. An exemplary kit to perform this assay includes the Adapta™ Screening Protocol and Assay Conditions by Invitrogen™ (Fisher Scientific™, Catalog No. PV5099).
(§2) All LRRK2 kinase inhibition assays were conducted by using Promega ADP-Glo™ Kinase assay systems (Catalog number; V4475). Inhibitors were tested with 12 concentrations over a 5-fold serial dilution series (50 μM, 10 μM, 2 μM, 400 nM, 80 nM, 16 nM, 3.2 nM, […]) and PF06447475 as positive control. For the LRRK2 wild type (WT) enzyme assay, each inhibitor was mixed with 0.2 μg/μL of substrate (LRRKtide, SignalChem, Richmond, BC, Canada), […] (Invitrogen™, Carlsbad, CA), 24 ng of LRRK2 WT enzyme (Thermo Fisher Scientific, PR8604B) in 384-well plate. For LRRK G2019S, each compound was mixed with 0.2 μg/μL of substrate, […], 16 ng of LRRK2 G2019S enzyme (SignalChem, L10-12GG). All samples were diluted with kinase reaction buffer (40 mmol/L TrisHCl, 10 mmol/L MgCl2, and 0.1 μg/μL BSA (bovine serum albumin)). After 2 hours at 25° C., ADP-Glo™ (Promega, Madison, WI) reagent was added and the samples were incubated at rt for 40 min. Finally, Kinase Detection Reagent was added and the resulting mixtures were allowed to react at rt for 10 min. Luminescence signals were detected using Synergy™ Neo2 microplate reader (Bio-Tek). Compound inhibition curve was fitted using Graphpad Prism 8.0 software.

The next experiment addresses LRRK2(G2019S) (Homo sapiens, UniProt Q5S007, G2019S). As to the kind of experiment: LRRK2 G2019S kinase inhibition assay (ADP-Glo). The class given is biochemical. Also noted: purchased SignalChem L10-12GG. The conditions noted are these: Table 2, class symbols; read-out: Enzyme activity against LRRK2 G2019S (IC50). The protocol:
as §1, §2

Sequence of LRRK2(G2019S) (Q5S007 970-2527 G2019S limits assumed): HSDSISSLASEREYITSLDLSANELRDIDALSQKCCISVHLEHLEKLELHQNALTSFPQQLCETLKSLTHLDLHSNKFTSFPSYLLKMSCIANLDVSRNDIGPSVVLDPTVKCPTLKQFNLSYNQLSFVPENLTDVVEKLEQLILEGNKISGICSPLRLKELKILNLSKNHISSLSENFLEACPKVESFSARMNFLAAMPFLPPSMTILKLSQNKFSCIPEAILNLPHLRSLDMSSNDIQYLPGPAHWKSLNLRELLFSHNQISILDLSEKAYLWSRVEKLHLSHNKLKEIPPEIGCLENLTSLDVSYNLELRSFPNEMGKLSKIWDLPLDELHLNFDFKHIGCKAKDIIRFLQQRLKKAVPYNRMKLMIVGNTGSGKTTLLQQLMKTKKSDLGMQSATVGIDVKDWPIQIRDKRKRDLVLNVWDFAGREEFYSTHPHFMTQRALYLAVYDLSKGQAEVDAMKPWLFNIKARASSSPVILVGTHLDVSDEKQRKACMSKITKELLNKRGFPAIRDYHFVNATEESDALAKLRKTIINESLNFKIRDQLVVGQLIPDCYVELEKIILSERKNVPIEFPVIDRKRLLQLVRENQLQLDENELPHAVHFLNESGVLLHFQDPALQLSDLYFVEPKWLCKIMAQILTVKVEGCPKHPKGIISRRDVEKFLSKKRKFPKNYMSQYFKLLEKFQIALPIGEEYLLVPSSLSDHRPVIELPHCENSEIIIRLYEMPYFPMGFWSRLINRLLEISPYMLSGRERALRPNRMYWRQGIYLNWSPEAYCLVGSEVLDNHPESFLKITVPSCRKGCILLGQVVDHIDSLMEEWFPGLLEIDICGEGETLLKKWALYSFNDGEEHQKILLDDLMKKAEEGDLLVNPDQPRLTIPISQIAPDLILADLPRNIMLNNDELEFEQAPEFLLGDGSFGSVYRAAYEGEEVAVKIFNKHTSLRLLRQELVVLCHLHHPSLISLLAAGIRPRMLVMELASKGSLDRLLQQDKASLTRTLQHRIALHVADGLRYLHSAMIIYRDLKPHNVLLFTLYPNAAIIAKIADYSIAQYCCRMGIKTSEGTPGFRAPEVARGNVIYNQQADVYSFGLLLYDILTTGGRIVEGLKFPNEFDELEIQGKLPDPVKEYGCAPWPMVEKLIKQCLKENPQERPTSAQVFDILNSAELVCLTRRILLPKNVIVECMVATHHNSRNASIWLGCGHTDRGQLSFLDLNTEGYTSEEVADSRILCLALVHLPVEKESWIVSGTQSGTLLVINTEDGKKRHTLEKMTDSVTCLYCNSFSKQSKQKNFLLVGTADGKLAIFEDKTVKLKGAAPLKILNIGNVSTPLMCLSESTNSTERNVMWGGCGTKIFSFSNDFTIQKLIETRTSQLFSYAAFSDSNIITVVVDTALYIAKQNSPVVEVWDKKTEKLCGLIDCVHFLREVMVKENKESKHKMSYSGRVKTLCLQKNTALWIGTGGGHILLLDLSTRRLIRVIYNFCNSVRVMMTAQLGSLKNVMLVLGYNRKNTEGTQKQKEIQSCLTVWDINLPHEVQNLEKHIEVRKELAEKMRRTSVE
T1 sequence (Q5S007 970-2527 limits assumed): as the sequence (Q5S007 970-2527 G2019S limits assumed) above, with S1050G counted along it

As to `CC(C)Nc1c(-c2ccc(C(=O)N3CCC(N4CCOCC4)CC3)cc2)cnc2[nH]ccc12` [Compound 54, (4-(4-(isopropylamino)-1H-pyrrolo[2,3-b]pyridin-5-yl)phenyl)(4-morpholinopiperidin-1-yl)methanone], the IC50 at LRRK2 WT enzyme and on LRRK2(G2019S) was 10 to 100 nM each time.
